Reference: US5614213A, “Use of estriol for treatment of climacteric osteoporosis” (priority 1992, dated 1997)
“Also recorded” adds a separate entry of the source.

How the values were obtained:
[1] = test system: ovulation in women; conditions: lower dosages than 5 mg/day; cited from earlier work
[2] = test system: osteoporosis; conditions: cited from earlier work; for prevention of osteoporosis in the climacteric: hormone replacement
[3] = test system: arteriosclerotic vascular changes; conditions: hormone replacement; cited from earlier work
[4] = test system: castrated (OVX) Wistar rats; experiment: Hydroxyproline level in serum of ovariectomized rats after estriol application; assay type: in vivo; conditions: for Hydroxyproline content in the serum: mean
Description: (§1) Investigation of the osteoporotic action of estriol on ovariectomized rats
(§2) 11 week-old female Wistar rats lose a considerable proportion of their bone substance in two weeks after ovariectomy. It was to be investigated whether this effect is preventable through estriol. For this, this hormone was to be applied such that constant hormone levels are established over the whole test period. […] The assumption that estriol has insufficient activity as a partial estrogen antagonist at the bone was also to be examined as another possibility.
(§3) Female Wistar rats from the experimental animal breeders "Biomodelle GmbH", O-1291 Schonwalde (breed: Wistar) were supplied at ages from nine to ten weeks and kept under conventional conditions at a room temperature of 22° C.[…] and under a light regime (14 h light and 10 h dark) in PVC shells with fitted wire covers.
(§4) The animals received standard formulation R 13 feed and drinking water ad libitum.
(§5) At the age of 11 weeks (body weight approximately 220 g) the animals were used in the experiment.
(§6) Subcutaneous application osmotic pumps. Model: Alzet 2002, capacity of the reservoir 200 μl. Throughflow 0.5 μl/hour. Solution of the test substance in propylene glycol.
(§7) The duration of the whole experiment was 3 weeks, 1 week before castration and two weeks (15 days) after castration.
In the week prior to castration, characteristic parameters. were determined "as starting values" prior to the estrogen-specific bone degradation through ovariectomy (hydroxyproline content in the 24-h-urine, hydroxyproline content and estriol concentration in the serum). […]
(§8) Hydroxyproline is released during the decomposition of collagen which also accounts for a considerable proportion of the bone substance.

[5] = test system: castrated (OVX) Wistar rats; experiment: Hydroxyproline excretion in 24-h urine of ovariectomized rats after estriol application; assay type: in vivo; conditions: for Hydroxyproline content in the urine: mean, n = 8
Description: as §1, §2, §3, §4, §5, §6, §7
In the week prior to castration, characteristic parameters. were determined "as starting values" prior to the estrogen-specific bone degradation through ovariectomy (hydroxyproline content in the 24-h-urine, hydroxyproline content and estriol concentration in the serum).
For the determination of the hydroxyproline content in the urine, the collective urine was obtained over 24 hours. For this, the animals were individually placed once a week in diuresis cages which permitted a sufficiently clean collection of urine, separate from faeces. The hydroxyproline content was then determined in the collective urine of each individual animal.
as §8

[6] = test system: femur bones; experiment: Trabecular proportion of the bone volume (femur histology) after ovariectomy; assay type: in vivo, Wistar rats
Description: as §1, §2, §3, §4, §5, §6, §7
At the end of the experiment the animals were killed and the femur bones fixed for histological investigations according to standard methods, cut with a hard cut microtome and investigated qualitatively and quantitatively as regards morphological features.
The effect on the proportion of trabecular structures in the surface of bone sections was determined as a parameter of the osteoprotective effect of estriol.

[7] = test system: uterus; conditions: administered once to ovariectomized rats; cited from earlier work
[8] = test system: bones; conditions: dosage quantities of 12 mg/day oral; cited from earlier work
[9] = test system: mastocarcinomas; conditions: mastocarcinoma; induction and promotion phases; cited from earlier work
[10] = test system: receptor; conditions: in combination with "strong" estrogens; cited from earlier work
[11] = conjugation with glucuronic acid or sulphate in the liver; cited from earlier work
[12] = OVX + D1, estriol 0.1 μg/24 hrs, day 7 after castration
[13] = OVX + D1, estriol 0.1 μg/24 hrs, day 15 after castration
[14] = OVX + D2, estriol 1.0 μg/24 hrs, day 7 after castration
[15] = OVX + D2, estriol 1.0 μg/24 hrs, day 15 after castration
[16] = OVX + D3, estriol 10.0 μg/24 hrs, day 7 after castration
[17] = OVX + D3, estriol 10.0 μg/24 hrs, day 15 after castration
[18] = OVX + D4, estriol 50.0 μg/24 hrs, day 7 after castration
[19] = OVX + D4, estriol 50.0 μg/24 hrs, day 15 after castration
[20] = OVX + D1, estriol 0.1 μg/24 hrs, day 12 after castration
[21] = OVX + D1, estriol 0.1 μg/24 hrs, day 13 after castration
[22] = OVX + D1, estriol 0.1 μg/24 hrs, day 14 after castration
[23] = OVX + D2, estriol 1.0 μg/24 hrs, day 12 after castration
[24] = OVX + D2, estriol 1.0 μg/24 hrs, day 13 after castration
[25] = OVX + D2, estriol 1.0 μg/24 hrs, day 14 after castration
[26] = OVX + D3, estriol 10.0 μg/24 hrs, day 12 after castration
[27] = OVX + D3, estriol 10.0 μg/24 hrs, day 13 after castration
[28] = OVX + D3, estriol 10.0 μg/24 hrs, day 14 after castration

C[C@]12CC[C@@H]3c4ccc(O)cc4CC[C@H]3[C@@H]1CC[C@@H]2O [estradiol]
suppression of ovulation in women [1]: clearly possible | prevention of osteoporosis in the climacteric [2]: can prevent advancing osteoporosis in the climacteric | effect on arteriosclerotic vascular changes [3]: can slow the advance of arteriosclerotic vascular changes

C[C@]12CC[C@@H]3c4ccc(O)cc4CC[C@H]3[C@@H]1CCC2=O [estrone]
prevention of osteoporosis in the climacteric [2]: can prevent advancing osteoporosis in the climacteric | effect on arteriosclerotic vascular changes [3]: can slow the advance of arteriosclerotic vascular changes

C[C@]12CC[C@@H]3c4ccc(O)cc4CC[C@H]3[C@@H]1C[C@@H](O)[C@@H]2O [estriol]
Hydroxyproline content in the serum ([4]; OVX + D1, estriol 0.1 μg/24 hrs, day 0 after castration (starting value), n = 8): 30,55 μmol/1 l | relative change of hydroxyproline content in the serum [4, 12]: 18,44% | Hydroxyproline content in the serum ([4]; OVX + D1, estriol 0.1 μg/24 hrs, day 7 after castration, n = 8): 35,31 μmol/1 l | relative change of hydroxyproline content in the serum [4, 13]: 11,66% | Hydroxyproline content in the serum ([4]; OVX + D1, estriol 0.1 μg/24 hrs, day 15 after castration, n = 8): 33,36 μmol/1 l | Hydroxyproline content in the serum ([4]; OVX + D2, estriol 1.0 μg/24 hrs, day 0 after castration (starting value), n = 8): 30,74 μmol/1 l | relative change of hydroxyproline content in the serum [4, 14]: 8,82% | Hydroxyproline content in the serum ([4]; OVX + D2, estriol 1.0 μg/24 hrs, day 7 after castration, n = 8): 33,20 μmol/1 l | relative change of hydroxyproline content in the serum [4, 15]: 0,39% | Hydroxyproline content in the serum ([4]; OVX + D2, estriol 1.0 μg/24 hrs, day 15 after castration, n = 8): 30,51 μmol/1 l | Hydroxyproline content in the serum ([4]; OVX + D3, estriol 10.0 μg/24 hrs, day 0 after castration (starting value), n = 8): 28,16 μmol/1 l | relative change of hydroxyproline content in the serum [4, 16]: -3,56% | Hydroxyproline content in the serum ([4]; OVX + D3, estriol 10.0 μg/24 hrs, day 7 after castration, n = 8): 26,25 μmol/1 l | relative change of hydroxyproline content in the serum [4, 17]: -23,81% | Hydroxyproline content in the serum ([4]; OVX + D3, estriol 10.0 μg/24 hrs, day 15 after castration, n = 8): 20,90 μmol/1 l | Hydroxyproline content in the serum ([4]; OVX + D4, estriol 50.0 μg/24 hrs, day 0 after castration (starting value), n = 9): 28,26 μmol/1 l | relative change of hydroxyproline content in the serum [4, 18]: -8,87% | Hydroxyproline content in the serum ([4]; OVX + D4, estriol 50.0 μg/24 hrs, day 7 after castration, n = 9): 25,45 μmol/1 l | relative change of hydroxyproline content in the serum [4, 19]: -38,62% | Hydroxyproline content in the serum ([4]; OVX + D4, estriol 50.0 μg/24 hrs, day 15 after castration, n = 9): 17,33 μmol/1 l | effect on increase of hydroxyproline in the blood after ovariectomy ([4]; result in words, Table 2): this increase was suppressed through treatment with estriol in dose-dependent manner | Hydroxyproline content in the urine ([5]; OVX + D1, estriol 0.1 μg/24 hrs, day 0 after castration (starting value)): 1,46 μmol/1 d | relative change of hydroxyproline content in the urine [5, 12]: 56,95% | Hydroxyproline content in the urine [5, 12]: 2,15 μmol/1 d | relative change of hydroxyproline content in the urine [5, 20]: 84,62% | Hydroxyproline content in the urine [5, 20]: 2,41 μmol/1 d | relative change of hydroxyproline content in the urine [5, 21]: 79,03% | Hydroxyproline content in the urine [5, 21]: 2,51 μmol/1 d | relative change of hydroxyproline content in the urine [5, 22]: 59,47% | Hydroxyproline content in the urine [5, 22]: 2,11 μmol/1 d | relative change of hydroxyproline content in the urine [5, 13]: 40,95% | Hydroxyproline content in the urine [5, 13]: 2,00 μmol/1 d | Hydroxyproline content in the urine ([5]; OVX + D2, estriol 1.0 μg/24 hrs, day 0 after castration (starting value)): 1,63 μmol/1 d | relative change of hydroxyproline content in the urine [5, 14]: 15,48% | Hydroxyproline content in the urine [5, 14]: 1,94 μmol/1 d | relative change of hydroxyproline content in the urine [5, 23]: 74,86% | Hydroxyproline content in the urine [5, 23]: 2,97 μmol/1 d | relative change of hydroxyproline content in the urine [5, 24]: 42,71% | Hydroxyproline content in the urine [5, 24]: 2,40 μmol/1 d | relative change of hydroxyproline content in the urine [5, 25]: 37,83% | Hydroxyproline content in the urine [5, 25]: 2,31 μmol/1 d | relative change of hydroxyproline content in the urine [5, 15]: 10,69% | Hydroxyproline content in the urine [5, 15]: 1,83 μmol/1 d | Hydroxyproline content in the urine ([5]; OVX + D3, estriol 10.0 μg/24 hrs, day 0 after castration (starting value)): 1,67 μmol/1 d | relative change of hydroxyproline content in the urine [5, 16]: 47,88% | Hydroxyproline content in the urine [5, 16]: 0,88 μmol/1 d | relative change of hydroxyproline content in the urine [5, 26]: -40,47% | Hydroxyproline content in the urine [5, 26]: 0,98 μmol/1 d | relative change of hydroxyproline content in the urine [5, 27]: -36,63% | Hydroxyproline content in the urine [5, 27]: 1,04 μmol/1 d | relative change of hydroxyproline content in the urine [5, 28]: -48,91% | Hydroxyproline content in the urine [5, 28]: 0,94 μmol/1 d | relative change of hydroxyproline content in the urine [5, 17]: -28,45% | Hydroxyproline content in the urine [5, 17]: 1,16 μmol/1 d | relative change of hydroxyproline content in the urine [5, 18]: -34,52% | relative change of hydroxyproline content in the urine ([5]; OVX + D4, estriol 50.0 μg/24 hrs, day 12 after castration): -33,26% | relative change of hydroxyproline content in the urine ([5]; OVX + D4, estriol 50.0 μg/24 hrs, day 13 after castration): -35,04% | relative change of hydroxyproline content in the urine ([5]; OVX + D4, estriol 50.0 μg/24 hrs, day 14 after castration): -38,21% | relative change of hydroxyproline content in the urine [5, 19]: -40,43% | effect on increase of hydroxyproline excretion in the urine after castration ([5]; result in words, Table 3): can also be alleviated through treatment with estriol | % trabecular proportion of the bone volume ([6]; OVX + 0.1 microg E3/day): 16.89% | % trabecular proportion of the bone volume ([6]; OVX + 1.0 microg E3/day): 17.46% | % trabecular proportion of the bone volume ([6]; OVX + 10.0 microg E3/day): 24.79% | % trabecular proportion of the bone volume ([6]; OVX + 50.0 microg E3/day): 26.64% | osteoprotective potential ([6]; overall evaluation, uniform levels of active ingredient): has an osteoprotective potential | effect on decomposition of bone mass after castration ([6]; result in words, Table 4): alleviated by estriol in a dose-dependent manner | stimulation of uterine weights [7]: does not significantly stimulate uterine weights | osteoprotective effectiveness in the bones [8]: developed no osteoprotective effectiveness in the bones | anti-tumour effect [9]: can prevent or suppress the development of mastocarcinomas; also recorded: proven anti-tumour effect | anti-estrogen action [10]: proved to have an anti-estrogen action | effectiveness for osteoporosis prophylaxis ([2]; official statement / text book): ineffectiveness; also recorded: Not effective for osteoporosis prophylaxis | inactivation of estriol [11]: inactivated extremely quickly
